Data from the supplement of paper PMC10307832.

Experiments:
Assay in all cases: relative viability (nuclei count vs DMSO), 5 days (fraction); higher = more cells survive
Ruxolitinib + Pictilisib = compound: N#CC[C@H](C1CCCC1)n1cc(-c2ncnc3[nH]ccc23)cn1 [Ruxolitinib] + CS(=O)(=O)N1CCN(Cc2cc3nc(-c4cccc5[nH]ncc45)nc(N4CCOCC4)c3s2)CC1 [Pictilisib] (partner 1 µM)
Outline: (§1)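 Each reported value is a median over duplicate plates. It expresses relative viability: treated-well nuclei count divided by vehicle-well nuclei count. Lung cancer cell lines in 1536-well plates were dosed by pin tool a day after seeding, alone with one drug or with a fixed anchor-drug dose plus five library-drug doses (not always all listed) in √10 steps, and nuclei were counted after 5 days.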

Ruxolitinib + Vorinostat = compound: N#CC[C@H](C1CCCC1)n1cc(-c2ncnc3[nH]ccc23)cn1 [Ruxolitinib] + O=C(CCCCCCC(=O)Nc1ccccc1)NO [Vorinostat] (partner 1 µM)
Outline: as §1

Vismodegib + Luminespib = compound: CS(=O)(=O)c1ccc(C(=O)Nc2ccc(Cl)c(-c3ccccn3)c2)c(Cl)c1 [Vismodegib] + CCNC(=O)c1noc(-c2cc(C(C)C)c(O)cc2O)c1-c1ccc(CN2CCOCC2)cc1 [Luminespib] (partner 0.01 µM)
Outline: as §1

Vismodegib + Decitabine = compound: CS(=O)(=O)c1ccc(C(=O)Nc2ccc(Cl)c(-c3ccccn3)c2)c(Cl)c1 [Vismodegib] + Nc1ncn([C@H]2C[C@H](O)[C@@H](CO)O2)c(=O)n1 [Decitabine] (partner 2 µM)
Outline: as §1

Cell Line: UMC-11
- relative viability (Ruxolitinib + Pictilisib; first compound 0.08 µM): 0.738
- relative viability (Ruxolitinib + Pictilisib; first compound 0.253 µM): 0.853
- relative viability (Ruxolitinib + Pictilisib; first compound 0.8 µM): 1.05
- relative viability (Ruxolitinib + Pictilisib; first compound 2.53 µM): 0.958
- relative viability (Ruxolitinib + Pictilisib; first compound 8 µM): 0.927
- relative viability (Ruxolitinib + Vorinostat; first compound 0.08 µM): 0.362
- relative viability (Ruxolitinib + Vorinostat; first compound 0.253 µM): 0.384
- relative viability (Ruxolitinib + Vorinostat; first compound 0.8 µM): 0.452
- relative viability (Ruxolitinib + Vorinostat; first compound 2.53 µM): 0.48
- relative viability (Ruxolitinib + Vorinostat; first compound 8 µM): 0.386
- relative viability (Vismodegib + Luminespib; first compound 0.08 µM): 0.937
- relative viability (Vismodegib + Luminespib; first compound 0.253 µM): 0.966
- relative viability (Vismodegib + Luminespib; first compound 0.8 µM): 1.01
- relative viability (Vismodegib + Luminespib; first compound 2.53 µM): 0.933
- relative viability (Vismodegib + Luminespib; first compound 8 µM): 1.04
- relative viability (Vismodegib + Decitabine; first compound 0.08 µM): 0.623
- relative viability (Vismodegib + Decitabine; first compound 0.253 µM): 0.579
- relative viability (Vismodegib + Decitabine; first compound 0.8 µM): 0.489
- relative viability (Vismodegib + Decitabine; first compound 2.53 µM): 0.457
- relative viability (Vismodegib + Decitabine; first compound 8 µM): 0.53
